Measurements taken from patent US7932262B2 (Novartis AG, priority 2006, dated 2011).
Where two headings read alike, the source gives them in different places.

What was measured:
PC-3 cells = experiment: Cell Proliferation Assay (Cell Titer Glo), PC-3 cell line; assay type: cell-based; settings: Homo sapiens
Summary of the method: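 Cell Titer Glo luminescence, read after fresh medium replaced the dosing medium, gave viability of PC-3 cells plated at 1000 cells/well. Compounds, 1:3 serially diluted in DMSO at 500× and then in medium, were added after 3-5 h adhesion and incubated 3 days at 37° C.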

PDK1 kinase = biological target: T1, PDK1 kinase (Homo sapiens, UniProt O15530); experiment: PDK1 Kinase Alpha Screen Assay; assay type: biochemical; settings: read-out: PDK1 IC50
T1 sequence (O15530 1-556): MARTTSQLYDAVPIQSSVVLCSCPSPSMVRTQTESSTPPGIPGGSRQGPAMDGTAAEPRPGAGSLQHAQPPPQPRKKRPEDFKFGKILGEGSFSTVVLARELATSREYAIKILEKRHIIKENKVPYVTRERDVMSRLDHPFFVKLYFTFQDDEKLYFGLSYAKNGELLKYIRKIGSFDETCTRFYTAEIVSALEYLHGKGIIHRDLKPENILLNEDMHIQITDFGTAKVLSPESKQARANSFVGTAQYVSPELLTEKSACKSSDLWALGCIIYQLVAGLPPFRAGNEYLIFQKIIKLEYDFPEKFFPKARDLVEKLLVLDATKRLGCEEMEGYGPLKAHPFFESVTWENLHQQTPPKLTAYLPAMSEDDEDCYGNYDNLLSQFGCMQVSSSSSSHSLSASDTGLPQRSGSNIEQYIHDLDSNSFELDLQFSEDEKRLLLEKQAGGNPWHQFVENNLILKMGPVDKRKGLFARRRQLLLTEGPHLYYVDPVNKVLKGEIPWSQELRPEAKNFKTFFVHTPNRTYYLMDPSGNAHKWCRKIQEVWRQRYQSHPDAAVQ
Summary of the method: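 AlphaScreen readout: phospho-peptide captured by phospho-(Ser/Thr) PKA substrate antibody (0.3 mg/ml) on protein A acceptor beads, biotin peptide on streptavidin donor beads (25 μg/ml each), overnight at room temperature. Kinase step used 50 nM PDK1-4 peptide, 10 uM ATP, 3-18 hours.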

A2780 cells = experiment: Cell Proliferation Assay (Cell Titer Glo), A2780; assay type: cell-based; settings: Homo sapiens, read-out: CPEC50 A2780
Summary of the method: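 Following a 3-day compound exposure (37° C., 5% CO2) of A2780 or PC3MM cells plated at 1000 per well, viability was measured by Cell Titer Glo luminescence in fresh medium, read 10 min after reagent addition.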

[1] = PC-3, Cell Proliferation Assay, PC3, read-out: CPEC50 PC3
[2] = Cell Proliferation Assay, A2780
[3] = cell proliferation, A2780 cells

IC50 (PDK1 kinase) [µM]	EC50 (PC-3 cells; [1]) [µM]	IC50 (PDK1 kinase; PDK1 Kinase Alpha Screen Assay) [µM]	EC50 (A2780 cells; [2]) [µM]	EC50 (A2780 cells; A2780 cells) [µM]	also measured	SMILES
< 5					EC50 (PC-3 cells; PC-3, 72 h, PC-3 cells, 3 days incubation, read-out: CP EC50 PC3): < 5 µM; EC50 (A2780 cells; 72 h, A2780 cells, 3 days incubation): < 5 µM	CC(C)N1CCC(Oc2ccc3cnc(Nc4ccc(S(=O)(=O)N5CCOCC5)cc4)nc3c2)CC1 [Compound 54, [7-(1-Isopropyl-piperidin-4-yloxy)-quinazolin-2-yl]-[4-(morpholine-4-sulfonyl)-phenyl]-amine]
	< 5	< 5	< 5			Cc1ccc(OC2CCNCC2)c2nc(Nc3ccc(C(=O)NC4CC4)cc3)ncc12 [Compound 364, N-cyclopropyl-4-(5-methyl-8-(piperidin-4-yloxy)quinazolin-2-ylamino)benzamide]
	< 5	< 5	< 5			NS(=O)(=O)c1ccc(Nc2ncc3cccc(Oc4ccccc4)c3n2)cc1 [Compound 405, 4-(8-phenoxyquinazolin-2-ylamino)benzenesulfonamide]
	< 5	< 5	< 5			NS(=O)(=O)c1ccc(Nc2ncc3cccc(OCC4CCNCC4)c3n2)cc1 [Compound 509, 4-(8-(piperidin-4-ylmethoxy)quinazolin-2-ylamino)benzenesulfonamide]
	< 5	< 5	< 5			CC(C)Oc1cccc2cnc(Nc3ccc(S(N)(=O)=O)cc3)nc12 [Compound 511, 4-(8-isopropoxyquinazolin-2-ylamino)benzenesulfonamide]
	< 5	< 5	< 5			NS(=O)(=O)c1ccc(Nc2ncc3cccc(OC4CCCC4)c3n2)cc1 [Compound 512, 4-(8-(cyclopentyloxy)quinazolin-2-ylamino)benzenesulfonamide]
	< 5	< 5	< 5			CC(C)N1CCC(COc2cccc3cnc(Nc4ccc(S(N)(=O)=O)cc4)nc23)CC1 [Compound 519, 4-(8-((1-isopropylpiperidin-4-yl)methoxy)quinazolin-2-ylamino)benzenesulfonamide]
	< 5		5 to 10			CC(C)Oc1cccc2cnc(Nc3ccc(C(N)=O)cn3)nc12 [Compound 520, 6-(8-isopropoxyquinazolin-2-ylamino)nicotinamide]
	< 5		5 to 10			CC(C)Oc1cccc2cnc(Nc3ccccn3)nc12 [Compound 521, 8-isopropoxy-N-(pyridin-2-yl)quinazolin-2-amine]
	< 5	< 5	< 5			c1csc(-c2cc3cnc(Nc4ccc(N5CCOCC5)cc4)nc3cc2OC2CCNCC2)n1 [Compound 645, N-(4-morpholinophenyl)-7-(piperidin-4-yloxy)-6-(thiazol-2-yl)quinazolin-2-amine]
	< 5	< 5	< 5			C#Cc1cc2cnc(Nc3ccc(N4CCOCC4)cc3)nc2cc1OC1CCNCC1 [Compound 646, 6-Ethynyl-N-(4-morpholinophenyl)-7-(piperidin-4-yloxy)quinazolin-2-amine]
	< 5	< 5	< 5			Cc1cc2cnc(Nc3ccc(N4CCOCC4)cc3)nc2cc1OC1CCNCC1 [Compound 647, 6-methyl-N-(4-morpholinophenyl)-7-(piperidin-4-yloxy)quinazolin-2-amine]
	< 5	< 5	< 5			Cc1cc2cnc(Nc3ccc(C(=O)N4CCOCC4)cc3)nc2cc1OC1CCNCC1 [Compound 648, (4-(6-methyl-7-(piperidin-4-yloxy)quinazolin-2-ylamino)phenyl)(morpholino)methanone]
	< 5	< 5	< 5			O=C(c1ccc(Nc2ncc3cc(-c4nccs4)c(OC4CCNCC4)cc3n2)cc1)N1CCOCC1 [Compound 649, morpholino(4-(7-(piperidin-4-yloxy)-6-(thiazol-2-yl)quinazolin-2-ylamino)phenyl)methanone]
		< 5			EC50 (PC-3 cells; PC-3, cell proliferation, PC3 cells, read-out: CPEC50 PC3): < 5 µM; EC50 (A2780 cells; [3]): < 5 µM	CN1CCC(Oc2ccc3cnc(Nc4ccc(S(=O)(=O)N5CCOCC5)cc4)nc3c2)CC1 [Compound 869, 7-(1-methylpiperidin-4-yloxy)-N-(4-(morpholinosulfonyl)phenyl)quinazolin-2-amine]
		< 5			EC50 (A2780 cells; [3]): < 5 µM	NS(=O)(=O)c1ccc(Nc2ncc3cccc(CNCc4ccccc4)c3n2)cc1 [Compound 901, 4-(8-((benzylamino)methyl)quinazolin-2-ylamino)benzenesulfonamide]
		< 5			EC50 (A2780 cells; [3]): < 5 µM	NS(=O)(=O)c1ccc(Nc2ncc3cccc(CN4CCCC4)c3n2)cc1 [Compound 903, 4-(8-(pyrrolidin-1-ylmethyl)quinazolin-2-ylamino)benzenesulfonamide]
		< 5			EC50 (A2780 cells; [3]): < 5 µM	NS(=O)(=O)c1ccc(Nc2ncc3ccc(-c4ccc(F)nc4)c(-c4ccc(F)nc4)c3n2)cc1 [Compound 912, 4-(7,8-bis(6-fluoropyridin-3-yl)quinazolin-2-ylamino)benzenesulfonamide]
< 5				< 5		CCN(CC)Cc1cccc2cnc(Nc3ccc(S(N)(=O)=O)cc3)nc12 [Compound 916, 4-(8-((diethylamino)methyl)quinazolin-2-ylamino)benzenesulfonamide]
< 5				< 5		NS(=O)(=O)c1ccc(Nc2ncc3cccc(CNCc4cccnc4)c3n2)cc1 [Compound 917, 4-(8-((pyridin-3-ylmethylamino)methyl)quinazolin-2-ylamino)benzenesulfonamide]
< 5				5 to 10		NS(=O)(=O)c1ccc(Nc2ncc3cccc(CNCCc4cnc[nH]4)c3n2)cc1 [Compound 918, 4-(8-((2-(1H-imidazol-5-yl)ethylamino)methyl)quinazolin-2-ylamino)benzenesulfonamide]
< 5				5 to 10		NC(=O)C1CCN(Cc2cccc3cnc(Nc4ccc(S(N)(=O)=O)cc4)nc23)CC1 [Compound 919, 1-((2-(4-sulfamoylphenylamino)quinazolin-8-yl)methyl)piperidine-4-carboxamide]
< 5				< 5		NS(=O)(=O)c1ccc(Nc2ncc3cccc(CNC4CCOCC4)c3n2)cc1 [Compound 920]
< 5				< 5		NS(=O)(=O)c1ccc(Nc2ncc3cccc(CNC4CCCCC4)c3n2)cc1 [Compound 921, 4-(8-((cyclohexylamino)methyl)quinazolin-2-ylamino)benzenesulfonamide]
< 5				< 5		NS(=O)(=O)c1ccc(Nc2ncc3cccc(CNCC4CCCO4)c3n2)cc1 (stereo not shown) [Compound 922, 4-(8-(((tetrahydrofuran-2-yl)methylamino)methyl)quinazolin-2-ylamino)benzenesulfonamide]
< 5				< 5		NS(=O)(=O)c1ccc(Nc2ncc3cccc(CN4CCc5ccccc5C4)c3n2)cc1 [Compound 923, 4-(8-((3,4-dihydroisoquinolin-2(1H)-yl)methyl)quinazolin-2-ylamino)benzenesulfonamide]
< 5				< 5		CC(=O)N1CCN(Cc2cccc3cnc(Nc4ccc(S(N)(=O)=O)cc4)nc23)CC1 [Compound 924, 4-(8-((4-acetylpiperazin-1-yl)methyl)quinazolin-2-ylamino)benzenesulfonamide]
